From the supplement of paper PMC9663587

Assays:
BSJ-03-123 = compound: CC(=O)c1c(C)c2cnc(Nc3ccc(N4CCN(CCOCCOCCOCCNC(=O)COc5cccc6c5C(=O)N(C5CCC(=O)NC5=O)C6=O)CC4)cn3)nc2n(C2CCCC2)c1=O [BSJ-03-123]; experiment: GR value, 72 h; higher = faster growth (1 = untreated, <0 = killing);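 also: breast cancer and non-malignant breast epithelial lines, nine half-log doses, viable cells counted by Hoechst and LIVE/DEAD dye imaging versus time-zero plates and DMSO controls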
LEE011/Ribociclib = compound: CN(C)C(=O)c1cc2cnc(Nc3ccc(N4CCNCC4)cn3)nc2n1C1CCCC1 [LEE011/Ribociclib]; experiment: as above
[1] = compound: CCN1CCN(Cc2ccc(Nc3ncc(F)c(-c4cc(F)c5nc(C)n(C(C)C)c5c4)n3)nc2)CC1; experiment: as above
[2] = compound: CCc1cnn2c(NCc3ccc[n+]([O-])c3)cc(N3CCCC[C@H]3CCO)nc12; experiment: as above
Flavopiridol = compound: CN1CC[C@H](c2c(O)cc(O)c3c(=O)cc(-c4ccccc4Cl)oc23)[C@H](O)C1 [Flavopiridol]; experiment: increase in dead-cell fraction, 72 h; higher = more death;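 also: breast cancer cell lines in 384-well plates, stained with Hoechst plus LIVE/DEAD far red dye and imaged, cells above an LDR intensity threshold counted dead, Hoechst-negative corpses included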
[3] = compound: CCN1CCN(Cc2ccc(Nc3ncc(F)c(-c4cc(F)c5nc(C)n(C(C)C)c5c4)n3)nc2)CC1; experiment: as above

MDAMB361
GR value (BSJ-03-123; 0.001 µM): 1.09 GR
GR value (BSJ-03-123; 0.003162 µM): 0.828 GR
GR value (BSJ-03-123; 0.01 µM): 0.927 GR
GR value (BSJ-03-123; 0.03162 µM): 0.784 GR
GR value (BSJ-03-123; 0.1 µM): 0.659 GR
GR value (BSJ-03-123; 0.3162 µM): 0.489 GR
GR value (BSJ-03-123; 1 µM): 0.32 GR
GR value (BSJ-03-123; 3.162 µM): 0.309 GR
GR value (BSJ-03-123; 10 µM): -0.0683 GR
GR value (LEE011/Ribociclib; 0.001 µM): 0.49 GR
GR value (LEE011/Ribociclib; 0.003162 µM): 0.396 GR
GR value (LEE011/Ribociclib; 0.01 µM): 0.306 GR
GR value (LEE011/Ribociclib; 0.03162 µM): 0.435 GR
GR value (LEE011/Ribociclib; 0.1 µM): 0.287 GR
GR value (LEE011/Ribociclib; 0.3162 µM): 0.0812 GR
GR value (LEE011/Ribociclib; 1 µM): 0.176 GR
GR value (LEE011/Ribociclib; 3.162 µM): -0.0126 GR
GR value (LEE011/Ribociclib; 10 µM): 0.2 GR
GR value ([1]; 0.001 µM): 0.882 GR
GR value ([1]; 0.003162 µM): 0.631 GR
GR value ([1]; 0.01 µM): 0.227 GR
GR value ([1]; 0.03162 µM): 0.118 GR
GR value ([1]; 0.1 µM): 0.119 GR
GR value ([1]; 0.3162 µM): 0.121 GR
GR value ([1]; 1 µM): 0.0452 GR
GR value ([1]; 3.162 µM): -0.189 GR
GR value ([1]; 10 µM): -0.341 GR
GR value ([2]; 0.0001 µM): 1.02 GR
GR value ([2]; 0.0003162 µM): 1.06 GR
GR value ([2]; 0.001 µM): 0.999 GR
GR value ([2]; 0.003162 µM): 1.09 GR
GR value ([2]; 0.01 µM): 0.737 GR
GR value ([2]; 0.03162 µM): -0.473 GR
GR value ([2]; 0.1 µM): -0.284 GR
GR value ([2]; 0.3162 µM): -0.28 GR
GR value ([2]; 1 µM): -0.282 GR
increase in dead-cell fraction (Flavopiridol; 0.0001 µM): 0.0029
increase in dead-cell fraction (Flavopiridol; 0.0003162 µM): -0.0069
increase in dead-cell fraction (Flavopiridol; 0.001 µM): -0.0039
increase in dead-cell fraction (Flavopiridol; 0.003162 µM): 0.0101
increase in dead-cell fraction (Flavopiridol; 0.01 µM): 0.0075
increase in dead-cell fraction (Flavopiridol; 0.03162 µM): 0.0039
increase in dead-cell fraction (Flavopiridol; 0.1 µM): -0.0034
increase in dead-cell fraction (Flavopiridol; 0.3162 µM): 0.0273
increase in dead-cell fraction (Flavopiridol; 1 µM): 0.0899
increase in dead-cell fraction ([3]; 0.001 µM): -0.0026
increase in dead-cell fraction ([3]; 0.003162 µM): -0.0006
increase in dead-cell fraction ([3]; 0.01 µM): 0.0107
increase in dead-cell fraction ([3]; 0.03162 µM): 0.0026
increase in dead-cell fraction ([3]; 0.1 µM): 0.0066
increase in dead-cell fraction ([3]; 0.3162 µM): 0.0052
increase in dead-cell fraction ([3]; 1 µM): 0.0161
increase in dead-cell fraction ([3]; 3.162 µM): 0.0884
increase in dead-cell fraction ([3]; 10 µM): 0.172
